Measured values from patent US20240158446A1, “CYCLIC COMPOUND HAVING SELECTIVE INHIBITORY ACTION ON KRAS OVER HRAS AND NRAS” (CHUGAI SEIYAKU KABUSHIKI KAISHA, priority 2021, published 2024).
Where two headings read alike, the source gives them in different places.

Columns and labels:
[1] = test system: human lung cancer strain NCI-H441;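 also: cell proliferation inhibition after four days measured by CellTiter-Glo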
[2] = target: GDP-bound KRAS wild-type protein (Homo sapiens, UniProt P01116); test: Binding to KRAS by surface plasmon resonance (SPR), Single Cycle Kinetics
GDP-bound KRAS wild-type protein, sequence (P01116 whole entry): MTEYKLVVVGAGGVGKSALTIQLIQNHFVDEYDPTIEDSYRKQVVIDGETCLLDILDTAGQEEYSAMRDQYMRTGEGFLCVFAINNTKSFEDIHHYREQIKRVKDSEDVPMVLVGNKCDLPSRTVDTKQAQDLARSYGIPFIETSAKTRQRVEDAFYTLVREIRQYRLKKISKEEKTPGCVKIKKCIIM

[3] = target: GDP-bound NRAS wild-type protein (Homo sapiens, UniProt P01111); test: Binding to NRAS by surface plasmon resonance (SPR), Single Cycle Kinetics; settings: for NRAS/KRAS (ratio of KD value for NRAS to KD value for KRAS): GDP-bound NRAS wild-type protein vs GDP-bound KRAS wild-type protein
GDP-bound NRAS wild-type protein, sequence (P01111 whole entry): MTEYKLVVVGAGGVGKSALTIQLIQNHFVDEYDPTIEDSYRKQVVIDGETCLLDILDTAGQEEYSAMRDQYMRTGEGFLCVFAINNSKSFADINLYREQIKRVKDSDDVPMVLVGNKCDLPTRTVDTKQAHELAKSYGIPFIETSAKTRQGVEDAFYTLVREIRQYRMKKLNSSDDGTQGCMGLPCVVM

[4] = target: GDP-bound HRAS wild-type protein (Homo sapiens, UniProt P01112); test: Binding to HRAS by surface plasmon resonance (SPR), Single Cycle Kinetics; settings: for HRAS/KRAS (ratio of KD value for HRAS to KD value for KRAS): GDP-bound HRAS wild-type protein vs GDP-bound KRAS wild-type protein
GDP-bound HRAS wild-type protein, sequence (P01112 whole entry): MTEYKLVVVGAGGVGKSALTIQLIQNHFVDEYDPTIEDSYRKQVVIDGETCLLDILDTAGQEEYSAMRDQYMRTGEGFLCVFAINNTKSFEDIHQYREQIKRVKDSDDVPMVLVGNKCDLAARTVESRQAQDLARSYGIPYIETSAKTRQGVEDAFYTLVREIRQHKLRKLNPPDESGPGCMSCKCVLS

[5] = SPR, Single Cycle Kinetics, 1:1 binding model, GDP-bound KRAS wild-type protein, read-out: KRAS KD
[6] = SPR, Single Cycle Kinetics, GDP-bound KRAS wild-type protein, read-out: KRAS KD

Compound | IC50 [1] | Kd [2, 5] | Kd [2, 6] | NRAS/KRAS (ratio of KD value for NRAS to KD value for KRAS) ([3]; SPR, KD ratio class) | HRAS/KRAS (ratio of KD value for HRAS to KD value for KRAS) ([4]; SPR, KD ratio class) | NRAS/KRAS (ratio of KD value for NRAS to KD value for KRAS) ([3]; SPR) | HRAS/KRAS (ratio of KD value for HRAS to KD value for KRAS) ([4]; SPR) | other results
CCO[C@@H]1C[C@H]2C(=O)NC3(CCC3)C(=O)N(C)[C@@H](C3CCCC3)C(=O)N(C)[C@H](C(=O)N(C)C)CC(=O)N(C)[C@@H](CC)C(=O)N[C@@H]([C@@H](C)CC)C(=O)N(C)CC(=O)N(C)[C@H]3C/C=C\CCN(C3=O)[C@@H](CC3CCCCC3)C(=O)N(C)CC(=O)N[C@@H](CCc3cc(F)c(C(F)(F)F)c(F)c3)C(=O)N2C1 [PP1466, (2S,8S,12R,14S,20S,23S,27S,30S,36S,38Z)-2-(cyclohexylmethyl)-20-cyclopentyl-8-[2-[3,5-difluoro-4-(trifluoromethyl)phenyl]ethyl]-12-ethoxy-27-ethyl-N,N,4,19,22,26,32,35-octamethyl-30-[(1S)-1-methylpropyl]-3,6,9,15,18,21,25,28,31,34,42-undecaoxo-spiro[1,4,7,10,16,19,22,26,29,32,35-undecazatricyclo[34.5.1.0^10,14]dotetracont-38-ene-17,1′-cyclobutane]-23-carboxamide] | 33.2 nM | 0.14 nM | – | A (a compound having 10 or more and less than 20 is denoted as A) | A (a compound having 10 or more and less than 20 is denoted as A) | – | – | –
CCC(CC)[C@H]1C(=O)N(C)[C@H](C(=O)N(C)C)CC(=O)N(C)[C@@H](COC)C(=O)N[C@@H]([C@@H](C)CC)C(=O)N(C)CC(=O)N(C)[C@H]2C/C=C\CCN(C2=O)[C@@H](CC2CCC(F)(F)CC2)C(=O)N(C)CC(=O)N[C@@H](CCc2ccc(C(F)(F)F)c(Cl)c2)C(=O)N2C[C@@H](C)C[C@H]2C(=O)NC2(CC(C)(C)C2)C(=O)N1C [PP2454] | 80.2 nM | – | 1.2 nM | – | – | AA (a compound having 20 or more is denoted as AA) | A (a compound having 10 or more and less than 20 is denoted as A) | –
CCC[C@H]1C(=O)N[C@@H]([C@@H](C)CC)C(=O)N(C2CC2)CC(=O)N(C)[C@H]2C/C=C\CCN(C2=O)[C@@H](Cc2ccc(C(F)(F)F)cc2)C(=O)N(C)CC(=O)N[C@@H](CCc2ccc(C(F)(F)F)c(OC)c2)C(=O)N2C[C@H](OCC)C[C@H]2C(=O)N(C)C2(CCC2)C(=O)N(C)[C@@H](C2CCCC2)C(=O)N(C)[C@H](C(=O)N2CCCC2)CC(=O)N1C [PP3097] | – | – | 0.38 nM | – | – | A (a compound having 10 or more and less than 20 is denoted as A) | A (a compound having 10 or more and less than 20 is denoted as A) | IC50 ([1]; read-out: NCI-H441 cell proliferation inhibitory activity, 50% proliferation inhibitory concentration (IC50 value), NCI-H441, four days, CellTiter-Glo): 5.4 nM; Kd ([2]; SPR, Single Cycle Kinetics, 1:1 binding model, read-out: KD value with respect to GDP-bound KRAS wild-type protein): 0.38 nM; ratio of the KD value with respect to GDP-bound NRAS wild-type protein to the KD value with respect to KRAS ([3]; SPR, KD(NRAS)/KD(KRAS)): A (a compound having 10 or more and less than 20 is denoted as A); ratio of the KD value with respect to GDP-bound HRAS wild-type protein to the KD value with respect to KRAS ([4]; SPR, KD(HRAS)/KD(KRAS)): A (a compound having 10 or more and less than 20 is denoted as A)
CCCO[C@H](C)[C@@H]1NC(=O)[C@H](CC(C)C)N(C)C(=O)C[C@@H](C(=O)N(C)CC)N(C)C(=O)[C@H](C2CCCC2)N(C)C(=O)C2(CC(C)(C)C2)NC(=O)[C@@H]2C[C@H](C)CN2C(=O)[C@H](CCc2ccc(C(F)(F)F)c(OC)c2)NC(=O)CN(C)C(=O)[C@H](Cc2ccc(C)cc2)N2CC/C=C\C[C@@H](C2=O)N(C)C(=O)CN(C)C1=O [PP2416] | 33.1 nM | – | 0.29 nM | – | – | A (a compound having 10 or more and less than 20 is denoted as A) | B (a compound having 3 or more and less than 10 is denoted as B) | –
CCC[C@H]1C(=O)N[C@@H]([C@@H](C)CC)C(=O)N(C)CC(=O)N(C)[C@H]2C/C=C\CCN(C2=O)[C@@H](Cc2ccc(C(F)(F)F)cc2)C(=O)N(C)CC(=O)N[C@@H](CCc2ccc3sccc3c2)C(=O)N2C[C@H](OCC)C[C@H]2C(=O)NC2(CCC2)C(=O)N(C)[C@@H](C(CC)CC)C(=O)N(C)[C@H](C(=O)N(C)C)CC(=O)N1C [PP1224] | 122 nM | 1.2 nM | – | A (a compound having 10 or more and less than 20 is denoted as A) | A (a compound having 10 or more and less than 20 is denoted as A) | – | – | –

Further lines, with some results ahead:

IC50 [1] | Kd [2, 5] | Kd [2, 6] | Compound | NRAS/KRAS (ratio of KD value for NRAS to KD value for KRAS) ([3]; SPR, KD ratio class) | HRAS/KRAS (ratio of KD value for HRAS to KD value for KRAS) ([4]; SPR, KD ratio class) | NRAS/KRAS (ratio of KD value for NRAS to KD value for KRAS) ([3]; SPR) | HRAS/KRAS (ratio of KD value for HRAS to KD value for KRAS) ([4]; SPR) | other results
15 nM | 0.46 nM | – | CCO[C@@H]1C[C@H]2C(=O)NC3(CCC3)C(=O)N(C)[C@@H](C3CCCC3)C(=O)N(C)[C@H](C(=O)N(C)C)CC(=O)N(C)[C@@H](CC3CCCC3)C(=O)N[C@@H]([C@@H](C)CC)C(=O)N(C)CC(=O)N(C)[C@H]3C/C=C\CCN(C3=O)[C@@H](Cc3ccc(C)cc3)C(=O)N(C)CC(=O)N[C@@H](CCc3cc(F)c(Cl)c(F)c3)C(=O)N2C1 [PP1486] | A (a compound having 10 or more and less than 20 is denoted as A) | A (a compound having 10 or more and less than 20 is denoted as A) | – | – | –
27.5 nM | 0.12 nM | – | CC[C@H](C)[C@@H]1NC(=O)[C@H](CC)N(C)C(=O)C[C@@H](C(=O)N(C)C)N(C)C(=O)[C@H](C2CCCC2)N(C)C(=O)C2(CCC2)NC(=O)[C@@H]2CC(F)(F)CN2C(=O)[C@H](CCc2cc(F)c(C(F)(F)F)c(F)c2)NC(=O)CN(C)C(=O)[C@H](CC2CCCCC2)N2CC/C=C\C[C@@H](C2=O)N(C)C(=O)CN(C)C1=O [PP1462, (2S,8S,14S,20S,23S,27S,30S,36S,38Z)-2-(cyclohexylmethyl)-20-cyclopentyl-8-[2-[3,5-difluoro-4-(trifluoromethyl)phenyl]ethyl]-27-ethyl-12,12-difluoro-N,N,4,19,22,26,32,35-octamethyl-30-[(1S)-1-methylpropyl]-3,6,9,15,18,21,25,28,31,34,42-undecaoxo-spiro[1,4,7,10,16,19,22,26,29,32,35-undecazatricyclo[34.5.1.0^10,14]dotetracont-38-ene-17,1′-cyclobutane]-23-carboxamide] | A (a compound having 10 or more and less than 20 is denoted as A) | A (a compound having 10 or more and less than 20 is denoted as A) | – | – | –
11 nM | 0.14 nM | – | CCC[C@H]1C(=O)N[C@@H]([C@@H](C)CC)C(=O)N(C)CC(=O)N(C)[C@H]2C/C=C\CCN(C2=O)[C@@H](Cc2ccc(C(F)(F)F)cc2)C(=O)N(C)CC(=O)N[C@@H](CCc2cc(F)c(C(F)(F)F)c(F)c2)C(=O)N2C[C@H](OCC)C[C@H]2C(=O)NC2(CCC2)C(=O)N(C)[C@@H](C2CCCC2)C(=O)N(C)[C@H](C(=O)N2CCCC2)CC(=O)N1C [PP1299, (2S,8S,12R,14S,20S,23S,27S,30S,36S,38Z)-20-cyclopentyl-8-[2-[3,5-difluoro-4-(trifluoromethyl)phenyl]ethyl]-12-ethoxy-4,19,22,26,32,35-hexamethyl-30-[(1S)-1-methylpropyl]-27-propyl-23-(pyrrolidine-1-carbonyl)-2-[[4-(trifluoromethyl)phenyl]methyl]spiro[1,4,7,10,16,19,22,26,29,32,35-undecazatricyclo[34.5.1.0^10,14]dotetracont-38-ene-17,1′-cyclobutane]-3,6,9,15,18,21,25,28,31,34,42-undecone] | A (a compound having 10 or more and less than 20 is denoted as A) | A (a compound having 10 or more and less than 20 is denoted as A) | – | – | –
4.1 nM | – | 0.045 nM | CCC[C@H]1C(=O)N[C@@H]([C@@H](C)CC)C(=O)N2CCC[C@H]2C(=O)N(C)[C@H]2C/C=C\CCN(C2=O)[C@@H](Cc2ccc(C)cc2)C(=O)N(C)CC(=O)N[C@@H](CCc2ccc(C(F)(F)F)c(OC)c2)C(=O)N2C[C@@H](C)C[C@H]2C(=O)N(C)C2(CCC2)C(=O)N(C)[C@@H](C2CCCC2)C(=O)N(C)[C@H](C(=O)N(C)C)CC(=O)N1C [PP2368] | – | – | A (a compound having 10 or more and less than 20 is denoted as A) | A (a compound having 10 or more and less than 20 is denoted as A) | –
12.1 nM | – | – | CCC[C@H]1C(=O)N[C@@H]([C@@H](C)CC)C(=O)N(C2CC2)CC(=O)N(C)[C@H]2C/C=C\CCN(C2=O)[C@@H](Cc2ccc(C)cc2)C(=O)N(C)CC(=O)N[C@@H](CCc2cc(F)c(C(F)(F)F)c(F)c2)C(=O)N2C[C@H](OC3CCC3)C[C@H]2C(=O)NC2(CC(C)(C)C2)C(=O)N(C)[C@@H](C2CCCC2)C(=O)N(C)[C@H](C(=O)N(C)C)CC(=O)N1C [PP2614] | – | – | – | – | Kd ([2]; SPR Single Cycle Kinetics, GDP-bound KRAS wild-type protein, 1:1 binding model, read-out: KRAS KD): 0.27 nM; NRAS/KRAS (ratio of KD value with respect to GDP-bound NRAS wild-type protein to KD value with respect to KRAS) ([3]; SPR KD ratio NRAS/KRAS, class symbols): A (a compound having 10 or more and less than 20 is denoted as A); HRAS/KRAS (ratio of KD value with respect to GDP-bound HRAS wild-type protein to KD value with respect to KRAS) ([4]; SPR KD ratio HRAS/KRAS, class symbols): A (a compound having 10 or more and less than 20 is denoted as A)
